Assay results from US11512074B2, “Substituted diamino heterocyclic carboxamide compound and a composition containing the compound and use thereof” (Shenzhen TargetRx, Inc., priority 2018, dated 2022).
Like-named read-outs stand apart in the source and are kept apart here.

How the values were obtained:
MV-4-11 cells = test: Inhibition of cell MV-4-11 proliferation (CTG assay); format: cell-based; conditions: Homo sapiens, MV4-11, 72 hours
From the text: (§1) Cell MV-4-11 (ATCC, Cat. No. CRL-9591), cell MOLM-13 (COBIOER, Cat. No. CBP60678), RPMI-1640 (GIBCO, Cat. No. A10491-01), penicillin-streptomycin (GIBCO, Cat. No. 15140-122), fetal bovine serum (GIBCO, Cat. No. 10099-141), phosphate buffer solution PBS (GIBCO, Cat. No. 10010-031), DMSO (Sigma, Cat. No. D8418-1L), CelltiterGlo Assay kit (CTG) (Promega, Cat. No. G7573), 96-well plate with transparent flat bottom and black walls (PerkinElmer, Cat. No. 6005680-50), plate shaker (QILINBEIER, Cat. No. B-9002), centrifuge (Eppendorf, Cat. No. 5804R), CO2 incubator (Thermo Scientific, Cat. No. 371), microscope (OLYMPUS Cat. No. CKX41), multi-plate reader (PerkinElmer, Cat. No. EnVision).
(§2) (2) Preparation of Cell Suspension • a) The medium was collected from the culture bottle and centrifuged at 1000 rpm for 5 min. • b) The supernatant was discarded, and the cells were resuspended in medium containing 10% fetal bovine serum, and counted to prepare a cell suspension (cell viability was greater than 90%). • c) The cell suspension was added into a 96-well plate, with […] in each well, namely 5000 MV-4-11 cells/well; 5000 MOLM-13 cells/well. • d) The cell plate was cultured overnight in a 37° C., 5% CO2 incubator.
(§3) Dilution of Compounds in DMSO: • a) MV-4-11 cells: The compounds were diluted with DMSO from 10 mM to 60 uM, and then subjected to a 3-fold serial gradient dilution in DMSO from 60 uM, resulting in 9 concentrations. • b) MOLM-13 cells: The compounds were diluted with DMSO from 10 mM to 200 uM, and then subjected to a 3-fold serial gradient dilution in DMSO from 200 uM, resulting in 9 concentrations. • c) Compound Taxol was diluted with DMSO from 10 mM to 200 uM, and then subjected to a 3-fold serial gradient dilution in DMSO from 200 uM, resulting in 9 concentrations.
(§4) (4) Treatment of Cells with Compounds (after the Overnight Incubation of the Cell Plate) • a) Each well was replenished with 99 μl of growth medium containing 10% FBS, and then 1 μl of the diluted compound was added to the well. The concentration of DMSO was 0.5%. • b) Concentrations of the tested compounds were: MV-4-11 cells: 300, 100, 33.3, 11.1, 3.7, 1.23, 0.41, 0.137, 0.046, 0 [nM]. • MOLM-13 cells: 1000, 333.3, 111.1, 37.04, 12.35, 4.1, 1.37, 0.46, 0.15, 0 [nM]. • c) Concentrations of control compound Taxol were: 1000, 333.3, 111.1, 37.04, 12.35, 4.12, 1.37, 0.46, 0.15, 0 [nM]. • d) The cell plate was placed in the incubator for 72 hours.
(§5) (5) CTG Assay • a) The test plate was placed at room temperature and equilibrated for 30 minutes, and 60 μl of the culture medium was discarded. • b) 60 μl of CTG reagent (CelltiterGlo kit) was added, and the plate was placed on a rapid plate shaker to shake for 2 min, and then let it stand at room temperature for 20 min. • c) Envision was used to read the values.
(§6) IC50 values were calculated using GraphPad Prism 6 software. The IC50 (half inhibitory concentration) values of the compounds were obtained by the following non-linear fitting formula. Y=Bottom+(Top−Bottom)/(1+10^((Log IC50−X)*HillSlope)) • X: Log value of the compound concentration • Y: Inhibition rate (% inhibition) % inhibition (inhibition rate)=100*(value of the High Control-value of the test compound well)/(value of the High Control-value of the Low Control)

[1] = Pharmacokinetic experiment in rats; format: in vivo, Sprague-Dawley rats; conditions: rat; for AUC(0-t) / Cmax / Tmax / half-life / AUC(0-inf) / MRT inf: male, Sprague-Dawley, plasma; for AUC(0-inf): read-out: AUCINF_pred; for MRT inf: read-out: MRTINF_pred; for F: PO 10 mg/kg vs IV 3 mg/kg
Protocol: Six male Sprague-Dawley rats, 7 to 8 weeks old, weighing approximately 210 g, were divided into 2 groups with 3 rats in each group. The pharmacokinetic differences of the compounds were compared after they were administered to the rats at a single dose through vein (in vein 3 mg/kg) or mouth (orally 10 mg/kg).
The rats were fed with standard feed and water, and fasted 16 hours before the experiment. The drugs were dissolved with PEG400 and dimethyl sulfoxide. The blood samples were collected from eyelids at the time point of 0.083, 0.25, 0.5, 1, 2, 4, 6, 8, 12 and 24 hours after administration.
The rats were anesthetized for a short time after inhaling ether, and 300 μL of blood samples was collected from the eyelids and put into test tubes, which contains 30 μL of 1% heparin salt solution. The test tubes were dried overnight at 60° C. prior to use. After the blood sample collection at the last time point, the rats were sacrificed after the ether anesthesia.
Immediately after the collection of the blood samples, the test tubes were gently inverted at least 5 times to ensure the fully mixing and placed on ice. The blood samples were centrifuged at 4° C., 5000 rpm for 5 minutes to separate the plasma from the red blood cells. 100 μL of plasma was pipetted into a clean plastic centrifuge tube, with the name of the compound and time point on it. The plasma was stored at −80° C. before analysis, and LC-MS/MS was used to determine the concentration of the compounds disclosed herein in plasma. Pharmacokinetic parameters were calculated based on the plasma concentrations of each animal at different time points.

MOLM-13 cells = test: Inhibition of cell MOLM-13 proliferation (CTG assay); format: cell-based; conditions: Homo sapiens, 72 hours, read-out: MOLM-1 IC50
From the text: as §1, §2, §3, §4, §5, §6

Row | IC50 (MV-4-11 cells) [nM] | AUC(0-t) ([1]; IV 3 mg/kg) [ng·h/mL] | Cmax ([1]; IV 3 mg/kg) [ng/mL] | Tmax ([1]; IV 3 mg/kg) [h] | half-life ([1]; IV 3 mg/kg) [h] | AUC(0-inf) ([1]; IV 3 mg/kg) [ng·h/mL] | MRT inf ([1]; IV 3 mg/kg) [h] | AUC(0-t) ([1]; PO 10 mg/kg) [ng·h/mL] | Cmax ([1]; PO 10 mg/kg) [ng/mL] | Tmax ([1]; PO 10 mg/kg) [h] | half-life ([1]; PO 10 mg/kg) [h] | AUC(0-inf) ([1]; PO 10 mg/kg) [ng·h/mL] | MRT inf ([1]; PO 10 mg/kg) [h] | Vz_pred ([1]; IV 3 mg/kg) [L/kg] | Vz_pred ([1]; PO 10 mg/kg) [L/kg] | F [1] [%] | IC50 (MOLM-13 cells) [nM] | SMILES
1 | 2.17 | 556 | 138 | 0.08 | 3.59 | 572 | 4.2 | 510 | 48.4 | 5.33 | 5.93 | 578 | 7.89 | 28.80 | 162.8 | 27.52 | 15 | [2H]C([2H])([2H])Oc1cc(Nc2nc(NC3CCOCC3)c(CC)nc2C(N)=O)ccc1N1CCC(N2CCN(C)CC2)CC1 [Compound T-1, 6-ethyl-3-((3-(methoxy-d3)-4-(4-(4-methylpiperazin-1-yl)piperidin-1-yl)phenyl)amino)-5-((tetrahydro-2H-pyran-4-yl)amino)pyrazine-2-carboxamide]
2 | 2.35 |  |  |  |  |  |  |  |  |  |  |  |  |  |  |  | 14.3 | [2H]C([2H])([2H])N1CCN(C2CCN(c3ccc(Nc4nc(NC5CCOCC5)c(CC)nc4C(N)=O)cc3OC)CC2)CC1 [Compound T-2, 6-ethyl-3-((3-methoxy-4-(4-(4-(methyl-d3)piperazin-1-yl)piperidin-1-yl)phenyl)amino)-5-((tetrahydro-2H-pyran-4-yl)amino)pyrazine-2-carboxamide]
3 | 2.25 |  |  |  |  |  |  |  |  |  |  |  |  |  |  |  | 14.2 | [2H]C([2H])([2H])Oc1cc(Nc2nc(NC3CCOCC3)c(CC)nc2C(N)=O)ccc1N1CCC(N2CCN(C([2H])([2H])[2H])CC2)CC1 [Compound T-3, 6-ethyl-3-((3-(methoxy-d3)-4-(4-(4-(methyl-d3)piperazin-1-yl)piperidin-1-yl)phenyl)amino)-5-((tetrahydro-2H-pyran-4-yl)amino)pyrazine-2-carboxamide]
4 | 2.01 |  |  |  |  |  |  |  |  |  |  |  |  |  |  |  | 12 | [2H]C([2H])([2H])N1CCN(C2CCN(c3ccc(Nc4nc(NC5CCOCC5)c(C([2H])([2H])C([2H])([2H])[2H])nc4C(N)=O)cc3OC)CC2)CC1 [Compound T-5, 6-(ethyl-d5)-3-((3-methoxy-4-(4-(4-(methyl-d3)piperazin-1-yl)piperidin-1-yl)phenyl)amino)-5-((tetrahydro-2H-pyran-4-yl)amino)pyrazine-2-carboxamide]
5 | 2.17 |  |  |  |  |  |  |  |  |  |  |  |  |  |  |  |  | [2H]C1([2H])N(C)C([2H])([2H])C([2H])([2H])N(C2CCN(c3ccc(Nc4nc(NC5CCOCC5)c(CC)nc4C(N)=O)cc3OC)CC2)C1([2H])[2H] [Compound T-8, 6-ethyl-3-((3-methoxy-4-(4-(4-methylpiperazin-1-yl-2,2,3,3,5,5,6,6-d8)piperidin-1-yl)phenyl)amino)-5-((tetrahydro-2H-pyran-4-yl)amino)pyrazine-2-carboxamide]
6 | 2.03 |  |  |  |  |  |  |  |  |  |  |  |  |  |  |  | 14.5 | [2H]C([2H])([2H])N1C([2H])([2H])C([2H])([2H])N(C2CCN(c3ccc(Nc4nc(NC5CCOCC5)c(CC)nc4C(N)=O)cc3OC)CC2)C([2H])([2H])C1([2H])[2H] [Compound T-9, 6-ethyl-3-((3-methoxy-4-(4-(4-(methyl-d3)piperazin-1-yl-2,2,3,3,5,5,6,6-d8)piperidin-1-yl)phenyl)amino)-5-((tetrahydro-2H-pyran-4-yl)amino)pyrazine-2-carboxamide]
7 | 2.23 | 449 | 196 | 0.08 | 4.08 | 509 | 3.44 | 317 | 34.6 | 8 | 5.76 | 435 | 7.46 | 34.89 | 212.0 | 21.15 | 14.3 | CCc1nc(C(N)=O)c(Nc2ccc(N3CCC(N4CCN(C)CC4)CC3)c(OC)c2)nc1NC1CCOCC1 [Gilteritinib, 6-ethyl-3-((3-methoxy-4-(4-(4-methylpiperazin-1-yl)piperidin-1-yl)phenyl)amino)-5-((tetrahydro-2H-pyran-4-yl)amino)pyrazine-2-carboxamide, reference compound]
